From ChEMBL document CHEMBL5223175, “Discovery of novel 2-oximino-2-indolylacetamide derivatives as potent anticancer agents capable of inducing cell autophagy and ferroptosis” (Bioorg Med Chem, 2023)
pIC50: −log10 of the molar value.

System: HeLa
Assay: Antiproliferative activity against human HeLa cells assessed as cell viability at 80 uM incubated for 72 hrs by CCK-8 assay
Format: functional
Conditions: read-out: Activity

In order of rising viability at 80 µM:
1. Cn1cc(/C(=N\O)C(=O)Nc2cccc(Cl)c2)c2ccccc21  14%
2. Cn1cc(/C(=N\O)C(=O)Nc2ccc(Br)cc2)c2ccccc21  14.8%
3. Cn1cc(/C(=N\O)C(=O)Nc2ccc(C(F)(F)F)cc2)c2ccccc21  15.8%
4. Cn1cc(/C(=N/O)C(=O)Nc2ccc(Br)cc2)c2ccccc21  18.4%
5. Cn1cc(/C(=N/O)C(=O)Nc2ccc(C(F)(F)F)cc2)c2ccccc21  25.7%
6. Cn1cc(/C(=N\O)C(=O)Nc2cccc(F)c2)c2ccccc21  53.2%
7. Cn1cc(/C(=N\O)C(=O)Nc2ccc(Br)c(F)c2)c2ccccc21  56.7%
8. Cn1cc(/C(=N/O)C(=O)Nc2ccc(Cl)cc2)c2ccccc21  57.2%
9. Cn1cc(/C(=N/O)C(=O)Nc2cccc(F)c2)c2ccccc21  61.2%
10. Cn1cc(/C(=N/O)C(=O)Nc2cccc(Cl)c2)c2ccccc21  64.6%
11. Cn1cc(/C(=N/O)C(=O)Nc2ccc(Br)c(F)c2)c2ccccc21  71.2%
12. Cc1ccccc1NC(=O)/C(=N/O)c1cn(C)c2ccccc12  77.1%
13. Cc1ccccc1NC(=O)/C(=N\O)c1cn(C)c2ccccc12  86.3%

System: SK-HEP1
Assay: Antiproliferative activity against human SK-HEP1 cells assessed as cell viability at 80 uM incubated for 72 hrs by CCK-8 assay
Format: functional
Conditions: read-out: Activity

In order of rising viability at 80 µM:
1. Cn1cc(/C(=N\O)C(=O)Nc2ccc(C(F)(F)F)cc2)c2ccccc21  15%
2. Cn1cc(/C(=N\O)C(=O)Nc2ccc(Br)cc2)c2ccccc21  28.9%
3. Cn1cc(/C(=N/O)C(=O)Nc2ccc(Br)cc2)c2ccccc21  29.1%
4. Cn1cc(/C(=N\O)C(=O)Nc2cccc(Cl)c2)c2ccccc21  31.4%
5. Cn1cc(/C(=N\O)C(=O)Nc2cccc(F)c2)c2ccccc21  40%
6. Cn1cc(/C(=N/O)C(=O)Nc2ccc(C(F)(F)F)cc2)c2ccccc21  51.5%
7. Cn1cc(/C(=N/O)C(=O)Nc2ccc(Br)c(F)c2)c2ccccc21  60.6%
8. Cn1cc(/C(=N/O)C(=O)Nc2cccc(Cl)c2)c2ccccc21  64.6%
9. Cn1cc(/C(=N/O)C(=O)Nc2cccc(F)c2)c2ccccc21  68%
10. Cn1cc(/C(=N/O)C(=O)Nc2ccc(Cl)cc2)c2ccccc21  71.6%
11. Cn1cc(/C(=N\O)C(=O)Nc2ccc(Br)c(F)c2)c2ccccc21  75.6%
12. Cc1ccccc1NC(=O)/C(=N/O)c1cn(C)c2ccccc12  76.8%
13. Cc1ccccc1NC(=O)/C(=N\O)c1cn(C)c2ccccc12  77.6%

System: not listed separately
Assay: Toxicity in BALB/c mouse xenografted with human 5-8F cells assessed as decrease in body weight at 2 mg/kg, ip administered every 2 days
Format: organism-based
Conditions: in vivo, 48 h, time 2 day

With COc1cccc2c1C(=O)c1c(O)c3c(c(O)c1C2=O)C[C@@](O)(C(=O)CO)C[C@@H]3O[C@H]1C[C@H](N)[C@H](O)[C@H](C)O1 [DOXORUBICIN] the Activity was “Toxic”.

System: CAL-27
Assay: Antiproliferative activity against human CAL-27 cells assessed as reduction in cell viability incubated for 72 hrs by CCK-8 assay
Format: functional, cell-based
Conditions: CAL-27, 72 h

Compound COc1cccc2c1C(=O)c1c(O)c3c(c(O)c1C2=O)C[C@@](O)(C(=O)CO)C[C@@H]3O[C@H]1C[C@H](N)[C@H](O)[C@H](C)O1 [DOXORUBICIN] has a pIC50 of 6.74.

System: 5-8F
Assay: Antiproliferative activity against human 5-8F cells assessed as cell viability at 80 uM incubated for 72 hrs by CCK-8 assay
Format: functional
Conditions: read-out: Activity

In order of falling viability at 80 µM:
1. Cc1ccccc1NC(=O)/C(=N/O)c1cn(C)c2ccccc12  95.3%
2. Cc1ccccc1NC(=O)/C(=N\O)c1cn(C)c2ccccc12  92.8%
3. Cn1cc(/C(=N\O)C(=O)Nc2ccc(Br)c(F)c2)c2ccccc21  86.8%
4. Cn1cc(/C(=N/O)C(=O)Nc2cccc(Cl)c2)c2ccccc21  78%
5. Cn1cc(/C(=N/O)C(=O)Nc2ccc(Br)c(F)c2)c2ccccc21  75%
6. Cn1cc(/C(=N/O)C(=O)Nc2cccc(F)c2)c2ccccc21  73.1%
7. Cn1cc(/C(=N\O)C(=O)Nc2cccc(F)c2)c2ccccc21  59.3%
8. Cn1cc(/C(=N/O)C(=O)Nc2ccc(Cl)cc2)c2ccccc21  47.2%
9. Cn1cc(/C(=N/O)C(=O)Nc2ccc(C(F)(F)F)cc2)c2ccccc21  45%
10. Cn1cc(/C(=N/O)C(=O)Nc2ccc(Br)cc2)c2ccccc21  31.5%
11. Cn1cc(/C(=N\O)C(=O)Nc2ccc(Br)cc2)c2ccccc21  22.1%
12. Cn1cc(/C(=N\O)C(=O)Nc2cccc(Cl)c2)c2ccccc21  12.7%
13. Cn1cc(/C(=N\O)C(=O)Nc2ccc(C(F)(F)F)cc2)c2ccccc21  10.2%

System: 5-8F
Assay: Antiproliferative activity against human 5-8F cells assessed as reduction in cell viability incubated for 72 hrs by CCK-8 assay
Format: functional, cell-based
Conditions: not given

For COc1cccc2c1C(=O)c1c(O)c3c(c(O)c1C2=O)C[C@@](O)(C(=O)CO)C[C@@H]3O[C@H]1C[C@H](N)[C@H](O)[C@H](C)O1 [DOXORUBICIN], the pIC50 was 6.47.

System: not listed separately
Assay: Antiproliferative activity against human NP69SV40T cells assessed as reduction in cell viability incubated for 72 hrs by CCK-8 assay
Format: toxicity, cell-based
Conditions: not given

COc1cccc2c1C(=O)c1c(O)c3c(c(O)c1C2=O)C[C@@](O)(C(=O)CO)C[C@@H]3O[C@H]1C[C@H](N)[C@H](O)[C@H](C)O1 [DOXORUBICIN] gave an IC50 at 72 h of 110 nM.

System: FaDu
Assay: Antiproliferative activity against human FaDu cells assessed as reduction in cell viability incubated for 72 hrs by CCK-8 assay
Format: functional, cell-based
Conditions: not given

In the case of COc1cccc2c1C(=O)c1c(O)c3c(c(O)c1C2=O)C[C@@](O)(C(=O)CO)C[C@@H]3O[C@H]1C[C@H](N)[C@H](O)[C@H](C)O1 [DOXORUBICIN], the pIC50 was 6.80.
